Measurements reported in US11254987B2, “PD-L1 promoter methylation in cancer” (Genentech, Inc., priority 2015, dated 2022).

What was measured:
Format in all cases: cell-based, human
PD-L1 RNA expression = PD-L1 RNA expression by qRT-PCR in treated NSCLC cell lines (FIG. 3, 4A)
Method: (§1) NSCLC cell lines were procured from American Type Cell Culture (ATCC) or academic sources and cultured in RPMI 1640 medium supplemented with 10% fetal bovine serum (FBS) and 2 mM L-glutamine. Cells were detached for splitting and/or experimental analysis following a PBS wash and incubation with Accutase detachment medium (Sigma). Cells were treated with 0.1 mM trichostatin A (“TSA,” Sigma) and/or 1 ng/mL interferon gamma (IFNγ) for 24 hours and 1 mM 5-azacitidine-dC (5-aza-dC, Sigma), for 3 days qd (i.e., once a day) or 6 days q2d (i.e., every other day).
(§2) Buffer RLT Plus (Qiagen) was used to lyse the cells for RNA and DNA extraction from the same lysate using the AllPrep DNA/RNA Mini Kit (Qiagen). RNA expression was analyzed by microarray on the GeneChip Human Genome U133 Plus 2.0 Array (Affymetrix) by Asuragen, Inc, and by qPCR using TaqMan Gene Expression Assays (Life Technologies). Data was analyzed using Genomics Suite (Partek), Spotfire (TIBCO), JMP (SAS), and IPA (Ingenuity). DNA was analyzed on the INFINIUM® HumanMethylation450 BeadChip (Illumina). DNA was bisulfite-modified using the Zymo DNA Gold Methylation kit (Zymo Research) and amplified with bisulfite specific sequencing primers targeting the CD274 promoter region. PCR products were TA-subcloned and sequenced using standard methods (ABI). ABI sequence files were analyzed using BIQ Analyzer software (C. Bock).
Cells from each of the cell lines were exposed to one of five conditions: (1) no treatment; (2) treatment with 1 mM 5-azacitidine-dC (5-aza-dC, a DNA demethylation agent); (3) treatment with 0.1 mM trichostatin A (TSA, a class I and class II mammalian histone […]); (4) treatment with 1 ng/mL interferon gamma (IFNg); or (5) treatment with a combination of 5-aza-dC, TSA, and IFNg. PD-L1 RNA expression was then measured by qRT-PCR.

PD-L1 protein expression = assay: Surface PD-L1 protein expression by FACS after IFNg treatment (FIG. 4A)
Method: as §1
For FACS analysis, cells were detached then washed twice in FBS Staining Buffer (BD Biosciences). Cells were then stained with either PE-conjugated anti-human PD-L1 or isotype control (BD Biosciences) and then washed and analyzed on the FACSCanto II Analyzer (BD Biosciences).
PD-L1 protein expression loosely correlated with RNA expression in this subset of cell lines, both at baseline and following IFNg stimulation. […] In the A427 cell line, PD-L1 protein expression remained low. In the H292 and H358 cell lines, PD-L1 protein expression increased 3-4 fold, and in H322T, PD-L1 protein expression increased more than 48-fold as compared to baseline levels. […] As discussed above, baseline levels of PD-L1 protein in H322T were low.

STAT1 = assay: Western blot of IFNg/JAK/STAT signaling pathway: STAT1
Method: (§3) Protein lysates were generated using Cell Extraction Buffer (Life Technologies), supplemented with SigmaFAST Protease Inhibitor Tablets (Sigma) and Phosphatase Inhibitor Cocktail 1 and 2 (Sigma). Lysates centrifuged at 20,000×g for 10 minutes at 4° C., and the supernatants were then removed for analysis by Western Blot (WB). Samples were treated with NuPage Novex LDS and SRA Buffers (Life Technologies) and loaded onto a Bis-Tris Gel (Life Technologies) alongside SeeBlue Plus2 molecular weight standard (Life Technologies). Gels were transferred to nitrocellulose membranes using the iBlot system (Life Technologies) and then blocked with Odyssey Blocking Buffer (LI-COR) for 1 hour at room temperature. Gels were stained with antibodies against human PD-L1 (in-house), β-actin (Sigma); p/t STAT1, p-STAT3-Y705, p-STAT3-5727, and t-STAT3 (all Cell Signaling) diluted in Odyssey Blocking Buffer+0.01% Tween-20. Primary antibodies were detected secondary antibodies from LI-COR in Odyssey Blocking Buffer+0.01% Tween-20+0.001% SDS and analyzed on the Odyssey CLx system (LI-COR).
Next, western blots were performed to determine whether the IFNg/JAK/STAT signaling pathway plays a role in the IFNg-mediated induction of PD-L1 transcript and protein levels in A427, H322T, H292, and H358. […]

STAT3 = assay: Western blot of IFNg/JAK/STAT signaling pathway: STAT3
Method: as §3
Next, western blots were performed to determine whether the IFNg/JAK/STAT signaling pathway plays a role in the IFNg-mediated induction of PD-L1 transcript and protein levels in A427, H322T, H292, and H358. Briefly, cells from A427, H322T, H292, and H358 were either (a) untreated; (b) treated with IFNg for 30 minutes; or (c) treated with IFNg for 24 hours. The cells were then processed into protein lysates and run out on gels, blotted and probed with the following antibodies: (1) anti-phospho-STAT1; (2) anti-total-STAT1: (3) anti-phospho-STAT3-Y705; (4) anti-phospho-STAT3-S727; (5) anti-total-STAT3; and (6) β-actin (loading control). […] STAT3 was further activated by the mTOR and MAPK pathways at S727.
Next, the relationship between PD-L1 promoter methylation and the IFNg/JAK/STAT pathway was investigated in A427 and H358 using siRNA. […] In order to determine which STAT was most crucial for PD-L1 expression in the context of methylation, cells from each cell line were dosed with (1) no siRNA; (2) Scrambled control; (3) siSTAT1; (4) siSTAT3; (5) IFNg, or (6) siSTAT1, siSTAT3, and IFNg.

PD-L1 expression [1] = assay: PD-L1 expression after IFNg and/or STAT1 and STAT3 siRNA knockdown in A427 and H358 (FIG. 4C); conditions: H358 (unmethylated)
Method: as §3
Next, the relationship between PD-L1 promoter methylation and the IFNg/JAK/STAT pathway was investigated in A427 and H358 using siRNA. […]

[2] = tested on: STAT1 near CpG1 in the PD-L1 promoter; assay: ChIP-Seq: binding of STAT1 near CpG1 in the PD-L1 promoter; conditions: H358, methylation at PD-L1 promoter LOW; IFNγ stimulation
Method: (§4) NSCLC cell lines were grown to the proper confluency, and treated cells were fixed with 1% formaldehyde for 15 min and quenched with 0.125 M glycine. Chromatin was isolated by the addition of lysis buffer and disruption with a Dounce homogenizer. Lysates were sonicated, and the DNA was sheared to an average length of 300-500 bp. Genomic DNA (Input) was prepared by treating aliquots of chromatin with RNase, proteinase K, and heat for de-crosslinking. Treatment was followed by ethanol precipitation. Pellets of genomic DNA were resuspended and the resulting DNA was quantified on a NanoDrop spectrophotometer. Extrapolation to the original chromatin volume allowed quantitation of the total chromatin yield.
(§5) An aliquot of chromatin (30 μg) was pre-cleared with protein A agarose beads (Invitrogen). […]
(§6) Illumina sequencing libraries were prepared from the ChIP and Input DNAs by the standard consecutive enzymatic steps of end-polishing, dA-addition, and adaptor ligation. After a final PCR amplification step, the resulting DNA libraries were quantified and sequenced on HiSeq 2500 or NexSeq 500. Sequences (50 nt reads, single end or 75 nt reads, single end) were aligned to the human genome (hg19) using the BWA algorithm. […] Peak locations were determined using the MACS algorithm (v1.4.2.) with a cutoff of pvalue=1×10^−7. […]

[3] = tested on: STAT3 near CpG1 in the PD-L1 promoter; assay: ChIP-Seq: binding of STAT3 near CpG1 in the PD-L1 promoter; conditions: H358, methylation at PD-L1 promoter LOW; IFNγ stimulation
Method: as §4, §5, §6

PD-L1 expression [4] = assay: PD-L1 expression after 5-aza-dC treatment of the CGP NSCLC cell line panel (FIG. 6C, 6D)
Method: as §1, §2
NSCLC cell lines from the Cancer Genome Project (CGP) were used to create a scatter plot directly comparing smoothened CpG1 and CpG5 methylation (M-value) on the X axis and PD-L1 expression (RNA-seq, Log 2-count) on the Y axis. […] PD-L1 baseline expression in these cell lines is highly affected by the level of promoter methylation. The CGP cell lines analyzed in FIG. 6A were then categorized into three methylation groups: (1) low (i.e., low to no methylation at both CpG1 and CpG5), (2) intermediate (i.e., CpG1 or CpG5 site methylated), or (3) high (CpG1 and CpG5 both methylated). These groups were plotted on the X axis, with basal PD-L1 expression by RNA-seq plotted on the Y and median expression shown for each group. […] Group (1) (i.e., low) had the highest median PD-L1 expression, with Group (2) (i.e., intermediate) and Group (3) (i.e., high) methylation groups showing lower median PD-L1 expression.
The cell lines in the CPG NSCLC cell line panel were then treated with 5-aza-dC in order to the effect global demethylation would have on PD-L1 expression in a dataset with a larger number of cell lines. […] Additionally, two cell lines in this panel are known to have been raised from two separate samples from one patient, H1993 (low) and H2073 (intermediate).

[5] = A427 following stimulation with IFNg (FIG. 4C)

Q: `CC(/C=C/C(=O)NO)=C\[C@@H](C)C(=O)c1ccc(N(C)C)cc1` [TSA, trichostatin A] was tested. Which “PD-L1 RNA expression” value (PD-L1 RNA expression; H322T only, of H661, LXFL529, A427, H2073, H322T, H1993, 0.1 mM TSA) did it give?
A: The value was “increase”.

Q: For “interferon gamma [IFNg, interferon gamma, used at 1 ng/mL to stimulate cells]”, which “PD-L1 RNA expression” value (PD-L1 RNA expression; A427 (high methylation) after IFNg stimulation) is on record?
A: The value was 0.012 2^−DCt.

Q: What about the “PD-L1 RNA induction” value (PD-L1 RNA expression; A427, H322T, H292 and H358 stimulated with IFNg) of the same compound?
A: The value was “increases”.

Q: What about the “PD-L1 RNA expression” value (PD-L1 RNA expression; H292 (low methylation) after IFNg stimulation) of the same compound?
A: Its value is 0.102 2^−DCt.

Q: What about the “PD-L1 RNA expression” value (PD-L1 RNA expression; H322T (medium methylation) after IFNg stimulation, baseline 0.018) of the same compound?
A: Its value is 1.356 2^−DCt.

Q: And the “PD-L1 RNA expression” value (PD-L1 RNA expression; H358 (low methylation, high baseline) after IFNg stimulation)?
A: The value was “no significant changes”.

Q: What about the PD-L1 protein expression (PD-L1 protein expression; A427 following IFNg treatment) of the same compound?
A: Its PD-L1 protein expression is “remained low”.

Q: What about the “PD-L1 protein expression increase” value (PD-L1 protein expression; H292 following IFNg treatment, vs baseline) of the same compound?
A: Its value is 3-4 fold.

Q: And the “PD-L1 protein expression increase” value (PD-L1 protein expression; H322T following IFNg treatment, compared to baseline levels)?
A: Its value is “more than 48 fold”.

Q: And the “PD-L1 protein expression increase” value (PD-L1 protein expression; H358 following IFNg treatment, vs baseline)?
A: The value was 3-4 fold.

Q: And the “surface PD-L1 protein levels” value (PD-L1 protein expression; all four cell lines (A427, H322T, H292, H358) following IFNg treatment)?
A: Its value is “increased”.

Q: What about the “induction of activated STAT1” value (STAT1; [5]) of the same compound?
A: Its value is “strong induction”.

Q: And the p-STAT1 activation (STAT1; all four cell lines (A427, H322T, H292, H358) following IFNg stimulation)?
A: The p-STAT1 activation was “robust”.

Q: What about the “induction of activated STAT3” value (STAT3; [5]) of the same compound?
A: Its value is “strong induction”.

Q: And the p-STAT3-Y705 (STAT3; H292, following 30 min IFNg treatment)?
A: Its p-STAT3-Y705 is “constitutively activated”.

Q: And the p-STAT3-5727 activation (STAT3; H358, before and after stimulation, early and late timepoints)?
A: Its p-STAT3-5727 activation is “did not show p-STAT3-5727 activation”.

Q: And the p-STAT3-Y705 (STAT3; H358, by 24 hrs following IFNg stimulation)?
A: Its p-STAT3-Y705 is “lost”.

Q: And the “Activation of the JAK/STAT signaling pathway” value (STAT3; all cell lines except H358, by 24 hrs IFNg)?
A: Its value is “observed”.

Q: And the PD-L1 expression (PD-L1 expression [1])?
A: Its PD-L1 expression is “further induced”.

Q: And the “Binding (chIP STAT1)” value [2]?
A: Its value is “bind and YES”.

Q: What about the “Binding (chIP STAT3)” value [3] of the same compound?
A: Its value is “bound and YES”.

Q: How did the “PD-L1 RNA expression” value (PD-L1 RNA expression; A427 (high methylation), 3 days of 5-aza-dC treatment) turn out when `Nc1ncn([C@H]2C[C@H](O)[C@@H](CO)O2)c(=O)n1` [5-aza-dC, 5-azacitidine-dC] was run?
A: The value was “increased”.

Q: What about the “PD-L1 RNA expression” value (PD-L1 RNA expression; H322T (medium methylation), 3 days of 5-aza-dC treatment) of the same compound?
A: The value was “increased”.

Q: What about the “PD-L1 RNA expression” value (PD-L1 RNA expression; H661 (high methylation at CpG1 and CpG5), 3 days of 5-aza-dC treatment) of the same compound?
A: Its value is “increased”.

Q: And the “PD-L1 RNA expression” value (PD-L1 RNA expression; LXFL529 (high methylation), 3 days of 5-aza-dC treatment)?
A: The value was “increased”.

Q: What about the PD-L1 expression (PD-L1 expression [4]; CGP NSCLC cell line panel treated with 5-aza-dC) of the same compound?
A: The PD-L1 expression was “significantly induced”.

Q: What about the PD-L1 expression (PD-L1 expression [4]; H1993 (low methylation) following 5-aza-dC treatment) of the same compound?
A: Its PD-L1 expression is “no significant changes”.

Q: What about the PD-L1 expression (PD-L1 expression [4]; H2073 (intermediate methylation) following 5-aza-dC treatment) of the same compound?
A: Its PD-L1 expression is “significant PD-L1 expression induction”.

Q: What about the “induction of methylation-suppressed PD-L1 expression” value (PD-L1 expression [4]; only Group (3) (high methylation) cell lines, 5-aza-dC) of the same compound?
A: Its value is “significant induction”.
